From patent US8852554B2, “Radiolabelled PDE10 ligands” (Janssen Pharmaceutica NV, priority 2009, dated 2014)
Several values for one entry are separate records, joined by “and”; a condition that tells them apart may be missing. Equal values may be shown once.

Experiment: Biodistribution studies of the 18F tracers in rats
Format: in vivo, male Wistar rats
Conditions: rat, i.v.
Description: Biodistribution studies were carried out in healthy male Wister rats (body weight 200-500 g) at 2 min, 30 min and 60 min post injection (p.i.) (n=3/time point). For |^18F|B-4 only the 2 min and 30 min time points were studied. […] Blood and major organs were collected in tared tubes and weighed. The radioactivity in blood, organs and other body parts was measured using an automated gamma counter. The distribution of radioactivity in different parts of the body at different time points p.i. of the tracer was calculated and expressed as percentage of injected dose (% ID), and as percentage of injected dose per gram tissue (% ID/g) for the selected organs. % ID is calculated as cpm in organ/total cpm recovered. For calculation of total radioactivity in blood, blood mass was assumed to be 7% of the body mass.

- % ID/g, Blood (30 min p.i.): 0.12 ± 0.01 % ID/g
- % ID/g, Cerebellum (30 min p.i.): 0.145 ± 0.020 % ID/g
- % ID/g, Cerebrum + Cerebellum (30 min p.i.): 0.15 ± 0.02 % ID/g
- % ID/g, Cerebrum total (30 min p.i.): 0.148 ± 0.014 % ID/g
- % ID/g, Cortex (30 min p.i.): 0.204 ± 0.016 % ID/g
- % ID/g, Heart (30 min p.i.): 0.24 ± 0.03 % ID/g
- % ID/g, Hippocampus (30 min p.i.): 0.096 ± 0.012 % ID/g
- % ID/g, Kidneys (30 min p.i.): 0.61 ± 0.11 % ID/g
- % ID/g, Liver (30 min p.i.): 3.72 ± 0.87 % ID/g
- % ID/g, Lungs (30 min p.i.): 0.27 ± 0.04 % ID/g
- % ID/g, Rest of cerebrum (30 min p.i.): 0.138 ± 0.013 % ID/g
- % ID/g, Spleen + Pancreas (30 min p.i.): 0.39 ± 0.04 % ID/g
- % ID/g, Striatum (30 min p.i.): 0.250 ± 0.029 % ID/g
- % ID in liver and intestines (60 min p.i.): 54 % ID
- % ID in the urinary system (60 min p.i.): ~2.6 % ID
- % ID, Blood (60 min p.i.): 2.2 % ID and 2.16 ± 0.4 % ID
- % ID, Carcass (60 min p.i.): 23.68 ± 3.9 % ID
- % ID, Cerebellum (60 min p.i.): 0.023 ± 0.005 % ID
- % ID, Cerebrum total (60 min p.i.): 0.145 ± 0.032 % ID
- % ID, Cortex (60 min p.i.): 0.018 ± 0.004 % ID
- % ID, Heart (60 min p.i.): 0.16 ± 0.0 % ID
- % ID, Hippocampus (60 min p.i.): 0.005 ± 0.001 % ID
- % ID, Intestines (60 min p.i.): 19.61 ± 1.5 % ID
- % ID, Kidneys (60 min p.i.): 1.38 ± 0.1 % ID
- % ID, Liver (60 min p.i.): 34.49 ± 8.0 % ID
- % ID, Lungs (60 min p.i.): 0.26 ± 0.1 % ID
- % ID, Rest of cerebrum (60 min p.i.): 0.116 ± 0.027 % ID
- % ID, Spleen + Pancreas (60 min p.i.): 0.43 ± 0.1 % ID
- % ID, Stomach (60 min p.i.): 17 % ID and 16.74 ± 4.6 % ID
- % ID, Striatum (60 min p.i.): 0.006 ± 0.002 % ID
- % ID, Urine (60 min p.i.): 1.22 ± 0.2 % ID
- % ID/g, Blood (60 min p.i.): 0.10 ± 0.02 % ID/g
- % ID/g, Cerebellum (60 min p.i.): 0.079 ± 0.021 % ID/g
- % ID/g, Cerebrum + Cerebellum (60 min p.i.): 0.10 ± 0.03 % ID/g
- % ID/g, Cerebrum total (60 min p.i.): 0.105 ± 0.035 % ID/g
- % ID/g, Cortex (60 min p.i.): 0.113 ± 0.031 % ID/g
- % ID/g, Heart (60 min p.i.): 0.15 ± 0.04 % ID/g
- % ID/g, Hippocampus (60 min p.i.): 0.074 ± 0.050 % ID/g
- % ID/g, Kidneys (60 min p.i.): 0.46 ± 0.02 % ID/g
- % ID/g, Liver (60 min p.i.): 2.53 ± 0.23 % ID/g
- % ID/g, Lungs (60 min p.i.): 0.16 ± 0.05 % ID/g
- % ID/g, Rest of cerebrum (60 min p.i.): 0.107 ± 0.030 % ID/g
- % ID/g, Spleen + Pancreas (60 min p.i.): 0.26 ± 0.07 % ID/g
- % ID/g, Striatum (60 min p.i.): 0.162 ± 0.042 % ID/g
- % ID in the carcass (at all time points examined): ~28 % ID
- maximum striatum-to-cerebellum ratio (biodistribution 2-60 min p.i.): about 2
Compound: Cc1cccc(COc2ccc(-c3nn(CC[18F])cc3-c3ccncc3)cc2)n1 [[^18F]B-1]
- % ID/g normalized for body weight, Cerebellum (30 min p.i.): 0.041 ± 0.01 % ID/g × body wt. in kg
- % ID/g normalized for body weight, Cerebrum + Cerebellum (30 min p.i.): 0.04 ± 0.01 % ID/g × body wt. in kg
- % ID/g normalized for body weight, Cerebrum total (30 min p.i.): 0.042 ± 0.01 % ID/g × body wt. in kg
- % ID/g normalized for body weight, Cortex (30 min p.i.): 0.057 ± 0.01 % ID/g × body wt. in kg
- % ID/g normalized for body weight, Heart (30 min p.i.): 0.07 ± 0.01 % ID/g × body wt. in kg
- % ID/g normalized for body weight, Hippocampus (30 min p.i.): 0.027 ± 0.01 % ID/g × body wt. in kg
- % ID/g normalized for body weight, Kidneys (30 min p.i.): 0.17 ± 0.01 % ID/g × body wt. in kg
- % ID/g normalized for body weight, Liver (30 min p.i.): 1.02 ± 0.13 % ID/g × body wt. in kg
- % ID/g normalized for body weight, Lungs (30 min p.i.): 0.08 ± 0.02 % ID/g × body wt. in kg
- % ID/g normalized for body weight, Rest of cerebrum (30 min p.i.): 0.039 ± 0.01 % ID/g × body wt. in kg
- % ID/g normalized for body weight, Spleen + Pancreas (30 min p.i.): 0.11 ± 0.02 % ID/g × body wt. in kg
- % ID/g normalized for body weight, Striatum (30 min p.i.): 0.070 ± 0.01 % ID/g × body wt. in kg
- radioactivity concentration, all studied brain regions (30 min p.i.): ≤ 0.07 % ID/g corrected for body weight
- striatum/blood ratio (from % ID/g normalized for body weight) (30 min p.i.): 2.05
- striatum/cerebellum ratio (from % ID/g normalized for body weight) (30 min p.i.): 1.72
- striatum/hippocampus ratio (from % ID/g normalized for body weight) (30 min p.i.): 2.59
- % ID/g normalized for body weight, Blood (60 min p.i.): 0.03 ± 0.01 % ID/g × body wt. in kg
- % ID/g normalized for body weight, Cerebellum (60 min p.i.): 0.025 ± 0.01 % ID/g × body wt. in kg
- % ID/g normalized for body weight, Cerebrum + Cerebellum (60 min p.i.): 0.03 ± 0.01 % ID/g × body wt. in kg
- % ID/g normalized for body weight, Cerebrum total (60 min p.i.): 0.033 ± 0.01 % ID/g × body wt. in kg
- % ID/g normalized for body weight, Cortex (60 min p.i.): 0.036 ± 0.01 % ID/g × body wt. in kg
- % ID/g normalized for body weight, Heart (60 min p.i.): 0.05 ± 0.01 % ID/g × body wt. in kg
- % ID/g normalized for body weight, Hippocampus (60 min p.i.): 0.023 ± 0.02 % ID/g × body wt. in kg
- % ID/g normalized for body weight, Kidneys (60 min p.i.): 0.15 ± 0.01 % ID/g × body wt. in kg
- % ID/g normalized for body weight, Liver (60 min p.i.): 0.81 ± 0.13 % ID/g × body wt. in kg
- % ID/g normalized for body weight, Lungs (60 min p.i.): 0.05 ± 0.02 % ID/g × body wt. in kg
- % ID/g normalized for body weight, Rest of cerebrum (60 min p.i.): 0.034 ± 0.01 % ID/g × body wt. in kg
- % ID/g normalized for body weight, Spleen + Pancreas (60 min p.i.): 0.08 ± 0.02 % ID/g × body wt. in kg
- % ID/g normalized for body weight, Striatum (60 min p.i.): 0.051 ± 0.01 % ID/g × body wt. in kg
- striatum/blood ratio (from % ID/g normalized for body weight) (60 min p.i.): 1.66
- striatum/cerebellum ratio (from % ID/g normalized for body weight) (60 min p.i.): 2.06
- striatum/hippocampus ratio (from % ID/g normalized for body weight) (60 min p.i.): 2.24
